What all share (assay type): physicochemical
Data set [1] has as its system RNA. The experiment in a line: percentage of IG in binary mixtures of RNA and ionizable lipid, ion pair reversed phase HPLC. To be noted: for levels of IG: binary mixtures of RNA and Compound III with 1 mM agent, versus control; for initial rate of IG formation: Compound III binaries with 5 mM agent (FIG. 15). The text has this:
To detect and quantify the amount of IG present in LNP formulations comprising polynucleotides and lipid, a protocol was developed (FIG. 2) that included (1) extraction of the polynucleotide molecules (e.g. precipitation, liquid:liquid extraction); (2) assessment of integrity (e.g. purity, length) of the isolated polynucleotides by known methods (e.g. fragment analyzer, gel electrophoresis); and (3) analysis of the isolated polynucleotides by HPLC.
(§1) RNA was extracted from the LNP formulation by precipitation in ammonium acetate in isopropanol; resuspended in water to target a final RNA concentration of 0.1 mg/mL; and assessed by fragment analyzer capillary electrophoresis and ion pair reversed phase HPLC (performed on a Thermo DNApac RP 100×2.1 mm column at 65° C., with mobile phases containing 50 mM dibutylammonium acetate and 100 mM triethylammonium acetate in water and acetonitrile). Elution with an acetonitrile gradient provided an RNA separation primarily driven by mRNA length and sensitive to any added hydrophobic elements. Two prominent peaks were apparent on the HPLC chromatogram (FIG. 2), including a “main peak” comprising non-adduct mRNA and an “IG” peak comprising mRNA with one or more covalent modifications. The mass fraction of RNA containing at least one lipid adduct was determined by integrating the area under the curve (AUC) of all RNA peaks (including products shorter than the full-length product, the full-length product, and the hydrophobic modified RNA) and taking the late-eluting region as an area percent of the total peak area.
Compound III was dissolved in ethanol at a concentration of 4 mg/mL, and the RNA diluted in sodium acetate buffer pH 5.5; the RNA and lipids were then mixed in 25% ethanol. Samples were held at 25° C., and the RNA was periodically extracted by precipitation in isopropanol and analyzed by ion pair reversed phase (FIGS. 5 and 6A, data marked by *).

In data set [2] the test system is RNA. The experiment in a line: percentage of IG in LNPs buffered with PBS or Tris, HPLC. Here is the method: as §1
To determine if different buffering conditions confer reductions in the percentage of IG formed in binary mixtures of RNA and Compound III, binary mixtures were prepared with RNA and Compound III and buffered with PBS or Tris at and the percentage of IG in the resulting binary mixtures was quantified according to the protocol detailed in Example 1. In brief, a single batch of LNPs was split mid-process into four aliquots, two of which were prepared in a final buffer of 1×PBS and the other two of which were prepared in a final buffer of 100 mM Tris-HCl pH 7.4. […]
To determine if different buffering conditions confer reductions in the percentage of IG formed in binary mixtures of RNA and Compound VI, binary mixtures were prepared with RNA and Compound VI and buffered PBS or Tris at and the percentage of IG in the resulting binary mixtures was quantified according to the protocol detailed in Example 1.

Data set [3] relates to RNA. Nature of the data set: percentage of IG in binary mixtures of RNA and ionizable lipid, ion pair reversed phase HPLC.

As to `O=C(O)CCCC[C@@H]1CCSS1` (racemic) [lipoic acid], the “levels of IG” value in data set [1] (25° C., after 18 hours) is reported as “reduced levels of IG”.

In the case of `CCCCCCCCCCCOC(=O)CCCCCN(CCO)CCCCCCCC(=O)OC(CCCCCCCC)CCCCCCCC` [Compound III], the “percentage of IG over time” value was “around 10%” in data set [2] (Compound III LNPs buffered with Tris and stored either at 5° C. or 20° C.); “increased over time” in data set [3] (binary mixtures with RNA). In data set [2] (Compound III LNPs, 100 mM Tris-HCl pH 7.4 (5° C., −20° C.) versus 1×PBS (5° C.)), the “percentage of IG, Tris versus PBS” value is “lower in binary mixtures buffered with Tris compared to binary mixtures buffered with PBS”. Besides, the “IG formation over time” value in data set [1] (chromatographically purified Compound III (up to 99% purity, no detectable Compound III-N-oxide) and RNA) is “still formed IG over time”. Moreover, the IG in data set [1] (control binary mixtures of RNA and Compound III (Example 6), 25° C., after 3 days) is reported as ~35%; in data set [3] (control binary mixtures of RNA and Compound III (Example 5), after 0 days), ~10%; in data set [3] (control binary mixtures of RNA and Compound III (Example 5), after 5 days), ~40%; in data set [3] (control binary mixtures of RNA and Compound III (Example 5), after 25 days), ~45%; in data set [3] (control binary mixtures of RNA and Compound III (Example 6), 25° C., after 1 day), ~15%; in data set [3] (control binary mixtures of RNA and Compound III (Example 6), 25° C., after 7 days) it was ~40%. Also, the IG detected in data set [1] (control binary mixtures of RNA and Compound III (Example 11), 25° C., after 18 hours) is ~20%; in data set [3] (control binary mixtures of RNA and Compound III (Example 7), 25° C., after 18 hours) it was ~35%; in data set [3] (control binary mixtures of RNA and Compound III, after 13 days of incubation at 25° C.) it was ~45%. The “percentage IG detected” value in data set [3] (mRNA and Compound III treated with higher concentrations of sodium metabisulfite (KDS), removed by dialysis with 20 mM Tris, t=0 h and 24 hours) was “reduced when treated with higher concentrations”.

Turning to `CCCCCCCCCN(CCCCCCCCC)CCN(CCCCCCCCC)CC(=O)N1CCN(C(=O)CN(CCCCCCCCC)CCCCCCCCC)CC1` [Compound VI], the “percentage of IG, Tris versus PBS” value in data set [2] (Compound VI LNPs stored at 5° C., 20 mM Tris, 8% sucrose, pH 8 versus 1×PBS, pH 7.2) is “lower in binary mixtures buffered with Tris compared to binary mixtures buffered with PBS”. In addition, the IG in data set [3] (control binary mixtures of RNA and Compound VI, after 1 day) is reported as ~55%; in data set [3] (control binary mixtures of RNA and Compound VI, after 2 days), ~70%; in data set [3] (control binary mixtures of RNA and Compound VI, after 13 days), ~80%.

With `Clc1ccc(C(c2ccc(Cl)cc2)C(Cl)(Cl)Cl)cc1` [DDT, dichlorodiphenyltrichloroethane], in data set [1] (25° C., after 18 hours), the “levels of IG” value is “reduced levels of IG”.

On to `O[C@H](CS)[C@@H](O)CS` [DTE, dithioerythritol], for which the “levels of IG” value in data set [1] (25° C., after 18 hours) was “reduced levels of IG”.

On to `O[C@H](CS)[C@H](O)CS` [DTT, dithiothreitol], for which, in data set [1] (25° C., after 18 hours), the “levels of IG” value is reported as “reduced levels of IG”.

On to `CC(=O)N[C@@H](CS)C(=O)O` [N-acetyl cysteine], for which the “initial rate of IG formation” value in data set [1] is reported as “effective at eliminating the fast initial rate of IG formation”. In data set [1] (25° C., after 18 hours), the “levels of IG” value is “reduced levels of IG”.

For `O=C(O)CCP(CCC(=O)O)CCC(=O)O` [TCEP, tris(2-carboxyethyl)phosphine], the “levels of IG” value in data set [1] (25° C., after 18 hours) was “reduced levels of IG”.

`NCCSSCCN` [cystamine]: the “levels of IG” value in data set [1] (25° C., after 18 hours) is reported as “reduced levels of IG”.

Turning to `N[C@@H](CCC(=O)N[C@@H](CS)C(=O)NCC(=O)O)C(=O)O` [glutathione], the “levels of IG” value in data set [1] (25° C., after 18 hours) is “reduced levels of IG”.

For the compound `N[C@@H](CCS)C(=O)O` [homo cysteine, homocysteine], the “levels of IG” value in data set [1] (25° C., after 18 hours) is on record as “reduced levels of IG”.

On to `O=S([O-])S(=O)(=O)[O-].[K+].[K+]` [potassium metabisulfite], for which the “initial rate of IG formation” value in data set [1] is “effective at eliminating the fast initial rate of IG formation”. Moreover, in data set [1] (25° C., after 18 hours), the “levels of IG” value is given as “reduced levels of IG”.

For `[BH4-].[Na+]` [sodium borohydrate], the “levels of IG” value in data set [1] (25° C., after 18 hours) was “reduced levels of IG”.

As to `O=S([O-])S(=O)(=O)[O-].[Na+].[Na+]` [sodium metabisulfite], the “initial rate of IG formation” value in data set [1] is listed as “effective at eliminating the fast initial rate of IG formation”.

As to `O=C([O-])CS.[Na+]` [sodium thioglycolate], in data set [1] (25° C., after 18 hours), the “levels of IG” value is “reduced levels of IG”.

Take `O=S([O-])([O-])=S.[Na+].[Na+]` [sodium thiosulfate]: the “levels of IG” value in data set [1] (25° C., after 18 hours) is “reduced levels of IG”.

The record behind these values is US20240189242A1, “LIPID NANOPARTICLE COMPOSITIONS AND METHODS OF FORMULATING THE SAME” (MODERNATX, INC., priority 2021, published 2024).
